Source: ChEMBL document CHEMBL1201862, “PubChem BioAssay data set” (2004)
One block for each compound: values may come before it. The source made the active and inactive calls.

Key:
[1] = reduced cellular PGC1a acetyl-lysine signal – cell-based, cherry-picked samples, dose response (AID 720514); type: functional;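 also: potency may reflect raised or lowered acetylation signal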
H9c2 = assay: cells; type: functional, cell-based; conditions: Rattus norvegicus, H9c2, Myocardium;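 also: confirmatory concentration-response retest of ultra-high-throughput screening hits for modulation of myocardial damage; cell death induced by hydrogen peroxide oxidative stress; compound pretreatment for 60 min then peroxide exposure for 2 h; potency is for protecting the cells against peroxide damage rather than for killing them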
Estrogen receptor = biological target: T1, Estrogen receptor (Homo sapiens, UniProt P03372);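 also: potency for inhibiting coactivator peptide recruitment to the receptor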
T1 sequence (P03372 whole entry): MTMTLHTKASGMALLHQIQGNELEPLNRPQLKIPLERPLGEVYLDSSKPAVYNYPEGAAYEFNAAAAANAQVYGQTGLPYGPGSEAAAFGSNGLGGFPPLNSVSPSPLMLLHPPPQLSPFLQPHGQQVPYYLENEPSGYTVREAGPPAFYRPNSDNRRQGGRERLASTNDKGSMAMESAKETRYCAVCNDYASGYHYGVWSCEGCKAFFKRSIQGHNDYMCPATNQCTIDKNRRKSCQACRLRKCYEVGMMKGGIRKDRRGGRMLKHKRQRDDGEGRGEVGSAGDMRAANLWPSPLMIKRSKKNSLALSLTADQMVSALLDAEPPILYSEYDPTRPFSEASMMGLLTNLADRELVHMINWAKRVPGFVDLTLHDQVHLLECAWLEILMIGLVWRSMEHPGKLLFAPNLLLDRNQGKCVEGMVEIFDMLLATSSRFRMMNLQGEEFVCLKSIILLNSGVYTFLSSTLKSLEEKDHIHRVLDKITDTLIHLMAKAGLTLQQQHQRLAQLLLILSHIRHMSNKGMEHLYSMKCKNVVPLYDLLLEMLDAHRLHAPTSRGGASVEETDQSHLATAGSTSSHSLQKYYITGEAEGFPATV

Coagulation factor XII = biological target: T2, Coagulation factor XII (Homo sapiens, UniProt P00748); type: functional;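 also: activated factor XIIa alpha cleaving a fluorogenic AMC peptide substrate; inhibitor potency from loss of enzyme activity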
T2 sequence (P00748 whole entry): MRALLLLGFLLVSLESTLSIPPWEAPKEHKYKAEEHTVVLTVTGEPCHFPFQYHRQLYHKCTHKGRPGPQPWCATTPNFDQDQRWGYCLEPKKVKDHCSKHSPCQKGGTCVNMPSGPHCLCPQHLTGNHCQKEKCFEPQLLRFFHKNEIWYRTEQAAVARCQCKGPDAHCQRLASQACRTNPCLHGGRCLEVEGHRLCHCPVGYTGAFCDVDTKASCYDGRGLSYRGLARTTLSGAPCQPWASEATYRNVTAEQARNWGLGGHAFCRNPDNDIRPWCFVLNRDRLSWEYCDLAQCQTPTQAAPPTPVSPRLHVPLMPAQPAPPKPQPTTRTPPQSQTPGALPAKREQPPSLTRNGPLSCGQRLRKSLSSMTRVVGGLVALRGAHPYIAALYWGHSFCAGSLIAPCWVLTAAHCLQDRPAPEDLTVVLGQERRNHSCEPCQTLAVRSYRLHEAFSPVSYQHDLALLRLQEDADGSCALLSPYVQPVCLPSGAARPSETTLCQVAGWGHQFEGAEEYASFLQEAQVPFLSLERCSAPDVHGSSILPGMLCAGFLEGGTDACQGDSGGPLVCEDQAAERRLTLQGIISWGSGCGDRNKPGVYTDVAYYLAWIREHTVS

cells [2] = type: functional, cell-based
cells [3] = type: functional, cell-based; remark: listed apart in the source
Cytochrome P450 3A4 [4] = biological target: T3, Cytochrome P450 3A4 (Homo sapiens, UniProt P08684); conditions: Potency
Prothrombin [5] = biological target: Prothrombin (Bos taurus, UniProt P00735); assay: thrombin protease inhibitors – biochemical, fluorescence polarization, uHTS hits, dose response (AID 602369); type: functional
[6] = biological target: 26S proteasome non-ATPase regulatory subunit 14 (Homo sapiens, UniProt O00487); assay: inhibition of proteasome subunit RPN11 – biochemical, fluorescence polarization, uHTS hits, confirmation (AID 602368); type: functional
[7] = viability of PTEN-deleted HCT116 cells – cell-based, HCT116 PTEN knockout, dose response (AID 1047); type: functional;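 also: HCT116 colon tumor cells with PTEN knocked out; cells exposed to compound for 60 hours before readout; potency for loss of cell viability measured by luminescence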
[8] = viability of HCT116 lacking mutant beta-catenin – cell-based, human colon tumor, dose response (AID 1045); type: functional;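 also: HCT116 colon tumor cells with beta catenin knocked out; cells exposed to compound for 60 hours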
[9] = biological target: 72 kDa type IV collagenase (Homo sapiens, UniProt P08253); assay: Dose Response validation of uHTS RPN11 inhibitor hits using a MMP-2 Fluorescence assay.; type: functional
Cytochrome P450 2C9 = Cytochrome P450 2C9 (Homo sapiens, UniProt P11712)
[10] = biological target: Eukaryotic translation initiation factor 4E (Mus musculus, UniProt P63073); assay: blockers of eIF4G binding by eIF4E – biochemical, TR-FRET, dose response (AID 855); type: functional;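 also: potency for disrupting eIF4E binding to eIF4GI seen as loss of FRET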
Cytochrome P450 3A4 [11] = biological target: T3, Cytochrome P450 3A4
Cytochrome P450 1A2 = biological target: T4, Cytochrome P450 1A2 (Homo sapiens, UniProt P05177);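 also: PubChem cytochrome P450 panel assay, CYP1A2 panel member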
T4 sequence (P05177 whole entry): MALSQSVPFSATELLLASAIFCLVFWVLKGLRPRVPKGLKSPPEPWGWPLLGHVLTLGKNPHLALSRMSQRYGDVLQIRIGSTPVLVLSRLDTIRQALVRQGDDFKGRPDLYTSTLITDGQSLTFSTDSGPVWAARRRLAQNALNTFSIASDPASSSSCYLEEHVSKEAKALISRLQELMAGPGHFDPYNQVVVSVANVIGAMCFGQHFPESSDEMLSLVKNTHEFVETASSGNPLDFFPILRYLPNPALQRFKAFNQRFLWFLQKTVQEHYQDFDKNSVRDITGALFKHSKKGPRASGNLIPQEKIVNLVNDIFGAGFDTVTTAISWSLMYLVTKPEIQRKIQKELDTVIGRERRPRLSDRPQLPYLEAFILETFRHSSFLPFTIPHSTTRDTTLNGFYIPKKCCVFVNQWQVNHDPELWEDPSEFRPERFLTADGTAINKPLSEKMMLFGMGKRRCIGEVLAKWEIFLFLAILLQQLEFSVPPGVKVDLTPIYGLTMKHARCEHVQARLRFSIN

Prothrombin [12] = biological target: Prothrombin (Homo sapiens, UniProt P00734); assay: Thrombin 1536 HTS Dose Response Confirmation. [Related pubchem assays: 1046 (Thrombin 1536 HTS; hits were confirmed in this assay)]; type: functional
[13] = biological target: DNA dC->dU-editing enzyme APOBEC-3G (Homo sapiens, UniProt Q9HC16); assay: Dose Response confirmation of small molecule APOBEC3G DNA Deaminase Inhibitors via a fluorescence-based single-stranded DNA deaminase assay. [Related pubchem assays (depositor defined):AID493012, AID493028]; type: functional
[14] = intracellular Trypanosoma cruzi inhibitors in host cells – cell-based, plate reader, cherry-pick samples, set 3, dose response (AID 651818); type: functional;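 also: compounds incubated with infected cells for about four days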
[15] = biological target: T5, Heat shock factor protein 1 (Mus musculus, UniProt P38532); assay: decrease of HSF1-responsive luciferase luminescence – cell-based, NIH3T3, dose retest, confirmation (AID 2382); type: functional;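 also: NIH3T3 fibroblasts with HSF1-driven luciferase reporter stressed by proteasome inhibitor MG132; luminescence from HSF1-driven luciferase expression after 8 hours of MG132 stress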
T5 sequence (P38532 whole entry): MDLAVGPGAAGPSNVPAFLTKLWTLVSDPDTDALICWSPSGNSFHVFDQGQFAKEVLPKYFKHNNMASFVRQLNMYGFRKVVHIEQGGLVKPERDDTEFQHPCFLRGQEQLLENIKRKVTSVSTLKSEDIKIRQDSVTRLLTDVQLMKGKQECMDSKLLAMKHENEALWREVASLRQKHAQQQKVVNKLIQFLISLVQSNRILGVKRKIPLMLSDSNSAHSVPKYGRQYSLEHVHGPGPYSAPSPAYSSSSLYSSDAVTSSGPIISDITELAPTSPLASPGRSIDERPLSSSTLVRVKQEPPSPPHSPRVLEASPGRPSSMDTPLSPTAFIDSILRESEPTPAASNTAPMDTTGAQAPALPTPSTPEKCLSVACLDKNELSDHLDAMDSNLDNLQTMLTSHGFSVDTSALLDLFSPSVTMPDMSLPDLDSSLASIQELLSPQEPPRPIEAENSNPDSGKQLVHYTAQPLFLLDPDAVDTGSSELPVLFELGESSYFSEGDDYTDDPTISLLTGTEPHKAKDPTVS

Large T antigen = Large T antigen (Simian virus 40, UniProt P03070); type: functional, Betapolyomavirus macacae;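 also: Confirmatory-stage PubChem screen for compounds that inhibit SV40 T antigen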
Sequence of Large T antigen (P03070 whole entry): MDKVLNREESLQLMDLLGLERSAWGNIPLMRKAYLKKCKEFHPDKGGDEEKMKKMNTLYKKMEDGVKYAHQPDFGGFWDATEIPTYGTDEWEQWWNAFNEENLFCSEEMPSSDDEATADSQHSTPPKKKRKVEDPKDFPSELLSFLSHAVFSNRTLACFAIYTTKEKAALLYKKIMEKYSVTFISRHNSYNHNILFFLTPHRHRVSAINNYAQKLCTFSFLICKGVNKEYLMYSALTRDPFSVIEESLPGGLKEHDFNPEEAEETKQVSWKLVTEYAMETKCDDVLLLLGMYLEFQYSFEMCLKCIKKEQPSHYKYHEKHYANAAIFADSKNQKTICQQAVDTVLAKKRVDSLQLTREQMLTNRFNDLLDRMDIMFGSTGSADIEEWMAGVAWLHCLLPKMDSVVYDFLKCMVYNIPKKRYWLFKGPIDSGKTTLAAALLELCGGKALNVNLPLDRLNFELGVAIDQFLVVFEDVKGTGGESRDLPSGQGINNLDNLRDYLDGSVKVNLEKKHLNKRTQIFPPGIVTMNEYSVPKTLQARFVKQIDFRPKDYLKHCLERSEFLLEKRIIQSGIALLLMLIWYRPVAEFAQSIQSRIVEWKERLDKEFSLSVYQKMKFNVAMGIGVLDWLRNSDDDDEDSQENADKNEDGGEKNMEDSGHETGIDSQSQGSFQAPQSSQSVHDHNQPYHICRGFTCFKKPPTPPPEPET

Sequence of 26S proteasome non-ATPase regulatory subunit 14 (O00487 whole entry): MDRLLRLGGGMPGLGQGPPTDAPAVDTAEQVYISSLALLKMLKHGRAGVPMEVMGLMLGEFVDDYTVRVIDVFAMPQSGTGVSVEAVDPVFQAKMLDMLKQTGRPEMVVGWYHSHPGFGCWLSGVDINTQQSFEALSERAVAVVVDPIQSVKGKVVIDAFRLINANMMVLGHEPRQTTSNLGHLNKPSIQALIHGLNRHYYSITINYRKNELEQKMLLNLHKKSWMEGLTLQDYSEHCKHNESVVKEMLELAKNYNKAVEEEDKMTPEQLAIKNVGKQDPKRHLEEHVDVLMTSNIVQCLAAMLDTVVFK
Sequence of 72 kDa type IV collagenase (P08253 whole entry): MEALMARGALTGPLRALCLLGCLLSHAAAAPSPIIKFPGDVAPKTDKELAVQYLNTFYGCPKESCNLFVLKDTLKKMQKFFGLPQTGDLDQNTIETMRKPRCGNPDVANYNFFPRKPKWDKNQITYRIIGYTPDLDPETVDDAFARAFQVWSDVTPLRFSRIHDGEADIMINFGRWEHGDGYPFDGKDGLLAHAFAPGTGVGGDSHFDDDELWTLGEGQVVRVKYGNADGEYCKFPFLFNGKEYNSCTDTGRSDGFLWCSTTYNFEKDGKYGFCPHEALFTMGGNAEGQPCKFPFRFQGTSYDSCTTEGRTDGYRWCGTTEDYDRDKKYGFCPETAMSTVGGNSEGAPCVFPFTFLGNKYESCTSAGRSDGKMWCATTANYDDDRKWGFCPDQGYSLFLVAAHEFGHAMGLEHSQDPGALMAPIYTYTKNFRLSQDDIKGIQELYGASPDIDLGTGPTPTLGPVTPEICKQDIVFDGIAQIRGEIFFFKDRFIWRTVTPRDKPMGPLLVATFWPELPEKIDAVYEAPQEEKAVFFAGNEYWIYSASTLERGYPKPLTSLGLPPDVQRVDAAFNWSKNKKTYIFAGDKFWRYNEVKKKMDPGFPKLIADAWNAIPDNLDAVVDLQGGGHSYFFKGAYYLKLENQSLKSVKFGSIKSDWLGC
Sequence of Eukaryotic translation initiation factor 4E (P63073 whole entry): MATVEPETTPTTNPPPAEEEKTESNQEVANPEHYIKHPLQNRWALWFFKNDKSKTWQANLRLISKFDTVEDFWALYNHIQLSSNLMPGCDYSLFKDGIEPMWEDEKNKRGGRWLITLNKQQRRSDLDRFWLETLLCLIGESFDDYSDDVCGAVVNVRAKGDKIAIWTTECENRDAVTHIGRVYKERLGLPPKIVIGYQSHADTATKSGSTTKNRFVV
T3 sequence (P08684 whole entry): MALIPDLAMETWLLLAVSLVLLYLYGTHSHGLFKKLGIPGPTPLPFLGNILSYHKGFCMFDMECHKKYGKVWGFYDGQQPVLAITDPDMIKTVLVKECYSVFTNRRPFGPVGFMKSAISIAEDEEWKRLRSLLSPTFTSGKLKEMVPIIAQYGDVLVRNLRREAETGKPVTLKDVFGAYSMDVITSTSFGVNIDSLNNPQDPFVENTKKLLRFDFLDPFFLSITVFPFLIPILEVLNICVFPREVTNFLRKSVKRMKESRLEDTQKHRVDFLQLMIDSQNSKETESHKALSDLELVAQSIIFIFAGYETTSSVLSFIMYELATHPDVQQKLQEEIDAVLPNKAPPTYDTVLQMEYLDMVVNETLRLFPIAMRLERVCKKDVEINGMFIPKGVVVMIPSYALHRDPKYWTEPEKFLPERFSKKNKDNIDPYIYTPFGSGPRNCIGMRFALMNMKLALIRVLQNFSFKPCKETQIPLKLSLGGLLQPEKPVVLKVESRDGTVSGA
Sequence of DNA dC->dU-editing enzyme APOBEC-3G (Q9HC16 whole entry): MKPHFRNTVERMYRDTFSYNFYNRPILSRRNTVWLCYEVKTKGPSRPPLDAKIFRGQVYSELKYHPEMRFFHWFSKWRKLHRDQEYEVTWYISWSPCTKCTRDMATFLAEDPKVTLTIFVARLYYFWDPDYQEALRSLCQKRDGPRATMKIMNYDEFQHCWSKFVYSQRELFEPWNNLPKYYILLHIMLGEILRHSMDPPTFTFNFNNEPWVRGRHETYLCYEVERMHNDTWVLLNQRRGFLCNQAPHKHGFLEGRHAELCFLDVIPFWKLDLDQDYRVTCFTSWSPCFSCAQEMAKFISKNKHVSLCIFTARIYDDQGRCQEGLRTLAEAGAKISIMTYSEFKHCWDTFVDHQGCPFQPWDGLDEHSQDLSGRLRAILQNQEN
Sequence of Cytochrome P450 2C9 (P11712 whole entry): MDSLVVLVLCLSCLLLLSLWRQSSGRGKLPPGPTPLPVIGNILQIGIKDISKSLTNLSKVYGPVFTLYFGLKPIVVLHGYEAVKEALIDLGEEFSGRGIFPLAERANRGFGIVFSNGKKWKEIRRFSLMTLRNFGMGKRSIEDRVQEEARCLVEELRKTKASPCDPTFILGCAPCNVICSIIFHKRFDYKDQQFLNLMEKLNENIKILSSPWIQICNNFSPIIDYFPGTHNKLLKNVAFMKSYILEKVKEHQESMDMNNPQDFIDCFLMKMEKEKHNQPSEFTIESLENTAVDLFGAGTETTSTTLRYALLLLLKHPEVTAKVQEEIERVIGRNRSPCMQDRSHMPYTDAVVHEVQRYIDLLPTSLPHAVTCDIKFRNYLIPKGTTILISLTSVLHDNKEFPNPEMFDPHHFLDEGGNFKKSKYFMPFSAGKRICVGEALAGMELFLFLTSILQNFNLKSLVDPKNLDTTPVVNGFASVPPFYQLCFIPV

Compound: O=[N+]([O-])c1cc(-c2nnc(O)c3ccccc23)ccc1NCCCO
AC50 [1]: 25 µM (active)
IC50 (H9c2): 16.3 µM (active)

IC50 (Estrogen receptor): 22.3 µM (active)
Compound: CC(C)CC(=O)Nc1ccc(C(=O)COc2ccc(-c3nnco3)cc2)cc1

IC50 (Coagulation factor XII): > 50 µM (inactive)
Compound: Cc1ccc(C(=O)NCCN2CCNC2=O)cc1

Compound: CC/N=C1\SC(CC(=O)NC(C)C)C(=O)N1CC (stereo not given)
EC50 (cells [2]): > 350 µM (not active)
EC50 (cells [3]): > 350 µM (not active)

AC50 (Cytochrome P450 3A4 [4]): 0.251 µM (inconclusive)
Compound: CC(Oc1ccccc1)C(=O)NC1C(=O)N2C(C(=O)O)C(C)(C)S[C@@H]12 (stereo not given in full)

IC50 (Estrogen receptor): > 50 µM (not active)
Compound: COc1ccc(N(CN2C(=O)C3C4C=CC(C4)C3C2=O)C(=O)c2ccco2)cc1 (stereo not given)

Compound: CCOC(=O)c1c(S(=O)(=O)N2CCCC2)c(C)n(C)c1C
EC50 (cells [2]): > 350 µM (not active)
EC50 (cells [3]): > 350 µM (not active)

Compound: O=C(Nc1ccc(F)cc1)Nc1nnc(-c2ccncc2)s1
IC50 (Prothrombin [5]): 65.5 µM (active)
IC50 [6]: 23.2 µM (active)
EC50 [7]: 22.4 µM (active)
EC50 [8]: 25.9 µM (active)
IC50 [9]: > 100 µM (inactive)

IC50 (Coagulation factor XII): > 50 µM (inactive)
Compound: CCN1C(=O)c2[nH]nc(C(=O)OC)c2C1=O

Compound: COc1ccc(Oc2c(Cl)cnn(-c3ccccc3)c2=O)cc1
AC50 [1]: 19.7 µM (active)
AC50 (Cytochrome P450 2C9): 11.2 µM (inconclusive)

IC50 [10]: > 64 µM (inactive)
AC50 (Cytochrome P450 3A4 [11]): 7.08 µM (inconclusive)
AC50 (Cytochrome P450 1A2): 5.62 µM (inconclusive)
AC50 (Cytochrome P450 2C9): 2.24 µM (inconclusive)
Compound: Cc1ccc(SCc2cc(=O)[nH]c(NC(N)=Nc3ccc(C)c(C)c3)n2)cc1

IC50 (Prothrombin [12]): > 50 µM (not active)
Compound: Cc1nc(NCCc2ccccc2F)c(C#N)c(C)c1[N+](=O)[O-]

Compound: CCOc1cc(C(=S)N2CCOCC2)ccc1O
IC50 [13]: 42.8 µM (active)
IC50 [10]: > 64 µM (inactive)

Compound: CCN(CC)CCCNC(=O)C1c2ccccc2C(=O)N(C)C1c1ccc(OC)cc1 (stereo not given)
EC50 (cells [2]): > 350 µM (not active)
EC50 (cells [3]): > 350 µM (not active)

IC50 (Estrogen receptor): > 50 µM (not active)
Compound: COc1ccc(Cc2nc3ccc(S(=O)(=O)N4CCOCC4)cc3[nH]2)cc1

AC50 (Cytochrome P450 3A4 [4]): 39.8 µM (inconclusive)
Compound: CC(CCC(=O)O)(c1ccc(O)cc1)c1ccc(O)cc1

Compound: C[C@H](CO)N1C[C@H](C)[C@H](CN(C)S(=O)(=O)c2ccc(Cl)cc2)Oc2c(NC(=O)CCCCCC(=O)Nc3ccccc3N)cccc2C1=O
AC50 [14]: 1.95 µM (active)

IC50 [10]: > 64 µM (inactive)
Compound: c1ccc(-n2nnc3cnccc32)cc1

EC50 [15]: > 195 µM (not active)
IC50 (Prothrombin [12]): 1.48 µM (active)
Compound: O=C(c1cccs1)n1nc(-c2ccco2)nc1SCc1ccccc1

IC50 (Prothrombin [5]): 29.7 µM (active)
IC50 [6]: 14.8 µM (active)
IC50 [9]: > 100 µM (inactive)
IC50 (Large T antigen): 9.11 µM (active)
Compound: COc1cc(/C=C2\N=C3CCCCCN3C2=O)ccc1O

Compound: CN(C)CCCOc1ccc(/C=N/NC(=O)CCCCCCC(=O)Nc2ccccc2O)cc1
AC50 [14]: 1.29 µM (active)

IC50 (Estrogen receptor): 38.5 µM (not active)
Compound: COC(=O)c1ccc(CSc2nc3c(cnn3-c3ccc(C)c(C)c3)c(=O)[nH]2)o1

IC50 (Prothrombin [5]): 36.5 µM (active)
IC50 [6]: 31.6 µM (active)
IC50 [9]: > 100 µM (inactive)
Compound: CCOC(=O)C1CCN(C(=O)CCc2nc3sc4c(c3c(=O)[nH]2)CCCC4)CC1

IC50 [10]: > 64 µM (inactive)
Compound: CCc1c(C)sc(NC(=O)C2CCCCC2C(=O)O)c1C(N)=O (stereo not given)

IC50 (Prothrombin [12]): 9.18 µM (active)
Compound: N#Cc1ccccc1NC(=O)COC(=O)COc1ccccc1[N+](=O)[O-]

IC50 (Coagulation factor XII): > 50 µM (inactive)
Compound: Cc1cc(C)n(C(=O)CNc2cccc(Cl)c2C)n1

AC50 (Cytochrome P450 3A4 [4]): 3.98 µM (inconclusive)
Compound: CCN1C(C)=C(C(=O)OC)C(c2ccccc2)N2C(=O)[C@@]3(C(=O)OC)O[C@@]12C1C(=O)CCCC13 (stereo not given in full)

Compound: C[C@@H]1CN([C@@H](C)CO)C(=O)c2cccc(NS(=O)(=O)c3cccs3)c2O[C@H]1CN(C)Cc1ccc(C(=O)Nc2ccccc2N)cc1
AC50 [14]: 5.68 µM (active)

IC50 (Prothrombin [5]): 50.4 µM (active)
IC50 [6]: 35.2 µM (active)
IC50 [9]: > 100 µM (inactive)
Compound: CC(=O)C1=C(O)C(=CC=Cc2ccccc2)OC1=O

Compound: O=C(C1CC1)N1C[C@@H]2N[C@H](C1)[C@@H]2c1ccc(/C=C/c2ccccc2)cc1
AC50 [1]: 32.3 µM (active)

AC50 (Cytochrome P450 3A4 [4]): 39.8 µM (inconclusive)
Compound: O=c1c(O)c(-c2ccc(O)c(O)c2)oc2c(OC3OC(CO)C(O)C(O)C3O)c(O)cc(O)c12 (stereo not given)

IC50 [13]: 55.8 µM (active)
Compound: O=C(CC1Sc2ncnn2C1=O)Nc1ccc(Br)cc1 (stereo not given)

Compound: Cc1ccc(NC2CCCN(C(=O)C3CCCCC3)C2)cc1C (stereo not given)
EC50 (cells [2]): > 350 µM (not active)
EC50 (cells [3]): > 350 µM (not active)
